Patent US7667036B2, “Pyrazolo[1,5-a]pyrimidine derivatives” (Teijin Pharma Limited, priority 2004, dated 2010)

Target: MAPKAP-K2 (Homo sapiens, UniProt P49137)
Test: MAPKAP-K2 enzyme activity inhibition assay, Method B (33P-ATP, MultiScreen-PH plate)
Format: biochemical
Conditions: recombinant human MAPKAP-K2, 0.5% DMSO, 30 min room temperature, read-out: Inhibitory activity (MAPKAP-K2 IC50 class)
Procedure: The assay of inhibitory activity was performed according to Method A described below for Compound No. 1, 2, 3, 4, 20, 21, 22, 23, 24, 25, 26, 79, 80 and 81, and Method B described below for the other compounds.
A compound was dissolved in […] to make its concentration to 20 mmol/L, and the resultant solution was stored at −20° C. The stock solution was sequentially diluted with DMSO to prepare a solution having a 200-fold concentration of the required range. Further the solution was diluted with water to 1:20 to prepare a solution having a 10-fold concentration of the required range, and an aliquot of 5 μL of each solution was used for every reaction with 50 μL. During the continuous dilution of all compounds, the final DMSO concentration was maintained at 0.5%. Compounds were routinely tested at a final concentration ranging from 100 μmol/L to 0.03 μmol/L, but were sometimes tested at a lower concentration depending upon their activity.
The reaction was initiated by adding 25 μL of a peptide substrate solution [60 μmol/L substrate peptide, 20 μmol/L ATP, 50 mmol/L Tris buffer (pH 7.5), 0.1 mmol/L EGTA, 0.1% β-mercaptoetanol, 20 mmol/L magnesium acetate, and 0.1 μCi [γ-33P]ATP (specific radio activity: approximately 110 TBq/mmol)] to 5 μL of a 5% DMSO solution of the test compound and subsequently adding 20 μL of a MAPKAP-K2 enzyme solution [10 mU recombinant human MAPKAP-K2, 50 mmol/L Tris buffer (pH 7.5), 0.1 mmol/L EGTA, 0.1% β-mercaptoethanol, 0.1% BSA]. After performing the reaction for 30 min at room temperature, an equivalent volume of 200 mmol/L phosphoric acid solution was added to terminate the reaction. Subsequently, 90 μL of the reaction product was adsorbed on a MultiScreen-PH Plate (Millipore) and then rinsed with 100 mmol/L phosphoric acid solution. After drying the plate, 30 μL of MicroScint-O (Packard BioScience) was added, and further the count per minute was measured by a scintillation counter to determine the inhibitory activity. The substrate peptide was Lys-Lys-Leu-Asn-Arg-Tlr-Leu-Ser-Val-Ala.
• % Control=(X−B)/(Tot−B)×100 • % Inhibition=100—% Control • X=count per minute of a test compound well • B=count per minute of a well without containing enzyme • Tot=count per minute of a well with DMSO solvent only, without containing the test compound (MAPKAP-K2 inhibitory activity) • IC50 value=the compound concentration at 50% inhibition

MAPKAP-K2, sequence (P49137 whole entry): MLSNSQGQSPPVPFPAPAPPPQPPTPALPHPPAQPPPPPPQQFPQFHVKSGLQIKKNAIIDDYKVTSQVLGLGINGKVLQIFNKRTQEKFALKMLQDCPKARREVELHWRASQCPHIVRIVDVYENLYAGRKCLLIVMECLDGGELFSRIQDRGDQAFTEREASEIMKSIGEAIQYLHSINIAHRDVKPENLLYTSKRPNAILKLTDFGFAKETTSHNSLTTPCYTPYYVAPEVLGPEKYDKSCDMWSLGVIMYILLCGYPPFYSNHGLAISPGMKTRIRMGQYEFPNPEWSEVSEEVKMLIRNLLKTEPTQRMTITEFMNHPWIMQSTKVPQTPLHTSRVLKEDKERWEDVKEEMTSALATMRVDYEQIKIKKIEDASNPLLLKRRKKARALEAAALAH

Row | SMILES | IC50 [µM]
1 | Cc1c(O[C@H]2CC[C@@H](N)CC2)nc2ccnn2c1Nc1ccc(OCCN2CCOCC2)cc1 [compound 90] | ≤ 2
2 | COc1cc(Nc2c(C)c(OC3CCCNC3)nc3ccnn23)cc(OC)c1 (stereo not drawn) [compound 50] | 20 to 100
3 | Cc1c(OC2CCCNC2)nc2ccnn2c1Nc1cccc2cnccc12 (stereo not drawn) [compound 63] | 20 to 100
4 | Cc1c(OC2CCCNC2)nc2ccnn2c1Nc1ccc(SC(F)(F)F)cc1 (stereo not drawn) [compound 54] | 2 to 20
5 | CCOc1ccc(Nc2c(C)c(OCCN)nc3ccnn23)cc1 [compound 28] | 20 to 100
6 | Cc1c(OC2CCCNC2)nc2ccnn2c1Nc1ccc(Cc2ccccc2)cc1 (stereo not drawn) [compound 52] | 2 to 20
7 | Cc1c(O[C@H]2CC[C@H](N)CC2)nc2ccnn2c1Nc1ccc(-c2cccc(N)c2)cc1 [Compound No. 93, N-4′-[5-(trans-4-aminocyclohexyloxy)-6-methylpyrazolo[1,5-a]pyrimidin-7-yl] biphenyl-3,4′-diamine] | ≤ 2
8 | Cc1c(O[C@H]2CC[C@@H](N)CC2)nc2ccnn2c1Nc1ccc(SC(F)(F)F)cc1 [compound 73] | ≤ 2
9 | Cc1c(OC2CCCNC2)nc2ccnn2c1Nc1ccc(OC(F)(F)F)c(Cl)c1 (stereo not drawn) [compound 57] | 2 to 20
10 | CCOc1ccc(Nc2c(C)c(O[C@@H]3CC[C@H](C)NC3)nc3ccnn23)cc1 [compound 18] | 20 to 100
11 | COC(=O)c1ccc(Nc2c(C)c(O[C@H]3CC[C@@H](N)CC3)nc3ccnn23)cc1 [compound 67] | 20 to 100
12 | Cc1c(OC2CCCNC2)nc2ccnn2c1Nc1ccc2nc(SC(C)C)sc2c1 (stereo not drawn) [compound 74] | 2 to 20
13 | CCOc1ccc(Nc2c(C)c(OCC(C)=O)nc3ccnn23)cc1 [compound 259] | 20 to 100
14 | Cc1c(OC2CCCNC2)nc2ccnn2c1Nc1ccc(C#N)c(C(F)(F)F)c1 (stereo not drawn) [compound 53] | 20 to 100
15 | CCOc1ccc(Nc2c(C)c(OCCCN)nc3ccnn23)cc1 [compound 29] | 20 to 100
16 | COc1ccc(Cl)cc1Nc1c(C)c(O[C@H]2CC[C@@H](N)CC2)nc2ccnn12 [compound 64] | 2 to 20
17 | N[C@H]1CC[C@@H](Oc2cc(Nc3ccc(F)c(Cl)c3)n3ncc(I)c3n2)CC1 [compound 19] | 20 to 100
18 | CCOc1ccc(Nc2c(C)c(O[C@@H]3CNCC[C@H]3CC(=O)N(C)C)nc3ccnn23)cc1 [compound 84] | 2 to 20
19 | CCOc1ccc(Nc2c(C)c(O[C@H]3CNCC[C@@H]3CCO)nc3ccnn23)cc1 [compound 41] | ≤ 2
20 | Cc1c(O[C@H]2CC[C@@H](N)CC2)nc2ccnn2c1NCc1ccccc1 [compound 268] | 2 to 20
21 | c1ccc(COc2ccc(Nc3c(-c4ccccc4)c(OC4CCCNC4)nc4ccnn34)cc2)cc1 (stereo not drawn) [compound 275] | 2 to 20
22 | CCOc1ccc(Nc2c(C)c(OCC(C)N)nc3ccnn23)cc1 (stereo not drawn) [compound 33] | 20 to 100

Row | SMILES | IC50 [µM]
23 | CC(=O)c1ccc(-c2ccc(Nc3c(C)c(O[C@H]4CC[C@@H](N)CC4)nc4ccnn34)cc2)s1 [compound 92] | ≤ 2
24 | Cc1c(O[C@H]2CC[C@H](N)CC2)nc2ccnn2c1Nc1ccc(OCCOCc2ccccc2)cc1 [Compound No. 91, [5-(trans-4-aminocyclohexyloxy)-6-methylpyrazolo[1,5-a]pyrimidin-7-yl]-[4-(2-benzyloxyethoxy)phenyl]-amine] | ≤ 2
25 | CCOc1ccc(Nc2c(C)c(OC3CCN(C)C3)nc3ccnn23)cc1 (stereo not drawn) [compound 256] | 20 to 100
26 | N[C@H]1CC[C@@H](Oc2nc3ccnn3c(Nc3ccc(OCc4ccccc4)cc3)c2-c2ccccc2)CC1 [compound 274] | 2 to 20
27 | CCOc1ccc(Nc2c(C)c(OC3CNCCC3CO)nc3ccnn23)cc1 (stereo not drawn) [compound 58] | 2 to 20
28 | CCOc1ccc(Nc2c(C)c(OC(CN)c3ccccc3)nc3ccnn23)cc1 (stereo not drawn) [compound 31] | 20 to 100
29 | Cc1c(O[C@H]2CC[C@@H](N)CC2)nc2ccnn2c1Nc1ccc(C(=O)c2ccccc2)cc1 [compound 70] | ≤ 2
30 | Cc1c(OC2CCCNC2)nc2ccnn2c1NCc1ccccc1 (stereo not drawn) [compound 269] | 2 to 20
31 | Cc1c(OCCN)nc2ccnn2c1NCc1ccccc1 [compound 270] | 20 to 100
32 | CCOc1ccc(Nc2c(C)c(OCC(N)(CO)CO)nc3ccnn23)cc1 [compound 43] | 20 to 100
33 | CCOc1ccc(Nc2c(C)c(OC(CN)CN)nc3ccnn23)cc1 [compound 42] | 20 to 100
34 | CCOc1ccc(Nc2c(C)c(O[C@@H]3CCNC3)nc3ccnn23)cc1 [compound 264] | 20 to 100
35 | Cc1ccc2nc(-c3ccc(Nc4c(C)c(OC5CCCNC5)nc5ccnn45)cc3)sc2c1 (stereo not drawn) [compound 60] | ≤ 2
36 | CCOc1ccc(Nc2c(C)c(OCC3CCCNC3)nc3ccnn23)cc1 (stereo not drawn) [compound 244] | 2 to 20
37 | Cc1c(OC2CCCNC2)nc2ccnn2c1Nc1ccc(C(=O)c2ccccc2)cc1 (stereo not drawn) [compound 51] | 2 to 20
38 | CCc1c(O[C@H]2CC[C@@H](N)CC2)nc2ccnn2c1Nc1ccccc1F [compound 9] | 2 to 20
39 | CCC[C@@H]1CCNC[C@H]1Oc1nc2ccnn2c(Nc2ccc(OCC)cc2)c1C (racemic) [Compound No. 16, (dl)-(4-ethoxyphenyl)-[6-methyl-5-(trans-4-propylpiperidin-3-yloxy)pyrazolo[1,5-a]pyrimidin-7-yl]amine] | 2 to 20
40 | Cc1c(OC2CCNCC2)nc2ccnn2c1Nc1ccc(OCc2ccccc2)cc1 [compound 240] | 2 to 20
41 | CCOc1ccc(Nc2c(C)c(O[C@@H]3CNCC[C@H]3CC(=O)NC)nc3ccnn23)cc1 [compound 83] | 2 to 20
42 | Cc1c(OC2CCCNC2)nc2ccnn2c1Nc1ccc(S(=O)(=O)N2CCOCC2)cc1 (stereo not drawn) [compound 61] | 2 to 20
43 | CCOc1ccc(Nc2c(C)c(OCC(N)CC)nc3ccnn23)cc1 (stereo not drawn) [compound 36] | 20 to 100
44 | Cc1c(O[C@H]2CC[C@@H](N)CC2)nc2ccnn2c1Nc1ccc2nc(SC(C)C)sc2c1 [compound 75] | ≤ 2

Row | SMILES | IC50 [µM]
45 | Cc1c(O[C@H]2CC[C@@H](N)CC2)nc2ccnn2c1Nc1cc(F)c(C#N)cc1F [compound 68] | 2 to 20
46 | CC(=O)c1ccc(Nc2c(C)c(OC3CCCNC3)nc3ccnn23)cc1 (stereo not drawn) [compound 62] | 2 to 20
47 | Cc1c(OC2CCCNC2)nc2ccnn2c1Nc1cccc(NS(C)(=O)=O)c1 (stereo not drawn) [compound 48] | 2 to 20
48 | CCc1c(O[C@H]2CC[C@@H](N)CC2)nc2ccnn2c1Nc1ccc(I)cc1 [compound 102] | ≤ 2
49 | CCOc1ccc(Nc2c(-c3ccccc3)c(OCCN)nc3ccnn23)cc1 [compound 273] | 20 to 100
50 | CCOc1ccc(Nc2c(C)c(OC3CC(C)(C)CC(C)(CN)C3)nc3ccnn23)cc1 (stereo not drawn) [compound 44] | 20 to 100
51 | CCOc1ccc(Nc2c(C)c(O[C@@H]3CNCC[C@H]3CC(=O)NCc3ccccc3)nc3ccnn23)cc1 [compound 85] | 2 to 20
52 | COc1ccc(Cl)cc1Nc1c(C)c(OC2CCCNC2)nc2ccnn12 (stereo not drawn) [compound 55] | 20 to 100
53 | CCOc1ccc(Nc2c(C)c(OCC3CCCCN3)nc3ccnn23)cc1 (stereo not drawn) [compound 245] | 20 to 100
54 | CCOc1ccc(Nc2c(C)c(OCCCCN)nc3ccnn23)cc1 [compound 30] | 2 to 20
55 | CCOc1ccc(Nc2c(C)c(OC3CCN(C)CC3)nc3ccnn23)cc1 [compound 253] | 2 to 20
56 | Cc1c(O[C@H]2CC[C@@H](N)CC2)nc2ccnn2c1Nc1ccc(C#N)c(C(F)(F)F)c1 [compound 72] | ≤ 2
57 | Cc1c(OC2CCCNC2)nc2ccnn2c1Nc1cc(OC2CCCNC2)c(C#N)cc1F (stereo not drawn) [compound 49] | 20 to 100
58 | COC(=O)c1ccc(Nc2c(C)c(OC3CCCNC3)nc3ccnn23)cc1 (stereo not drawn) [compound 47] | 2 to 20
59 | CCn1c2ccccc2c2cc(Nc3c(C)c(O[C@H]4CC[C@@H](N)CC4)nc4ccnn34)ccc21 [compound 65] | ≤ 2
60 | CSc1nc2ccc(Nc3c(C)c(O[C@H]4CC[C@@H](N)CC4)nc4ccnn34)cc2s1 [compound 46] | ≤ 2
61 | CCc1c(O[C@H]2CC[C@@H](N)CC2)nc2ccnn2c1Nc1ccc(F)c(Cl)c1 [compound 10] | 2 to 20
62 | CCOc1ccc(Nc2c(C)c(OCC3(N)CCCC3)nc3ccnn23)cc1 [compound 40] | 20 to 100
63 | COc1ccc(Nc2ccc(Nc3c(C)c(O[C@H]4CC[C@@H](N)CC4)nc4ccnn34)cc2)cc1 [compound 66] | ≤ 2
64 | CCn1c2ccccc2c2cc(Nc3c(C)c(OC4CCCNC4)nc4ccnn34)ccc21 (stereo not drawn) [compound 56] | 2 to 20
65 | Cc1c(O[C@H]2CC[C@@H](N)CC2)nc2ccnn2c1NC1CCCC1 [compound 271] | 2 to 20
66 | Cc1c(OC2CCCNC2)nc2ccnn2c1NC1CCCC1 (stereo not drawn) [compound 272] | 2 to 20
